Consider 3 molecules from ChEMBL document CHEMBL4043245, “Synthesis, characterization, and cellular localization of a fluorescent probe of the antimalarial 8-aminoquinoline primaquine” (Bioorg Med Chem Lett, 2017).

One data set deals with HepG2. Nature of the data set: Cytotoxicity against human HepG2 cells after 24 hrs by MTS assay. The conditions noted are these: HepG2, 24 h. The class given is cell-based. For orientation: Tetrazolium assays rely on reduction of a dye to a coloured formazan, in cell work by metabolically active cells.
The test system of data set [1] is Plasmodium falciparum. Nature of the data set: Antimalarial activity against asexual blood stage of chloroquine-resistant Plasmodium falciparum W2 infected in human erythrocytes by [3H]-Hypoxanthine uptake assay. The class given is functional, cell-based.
In a further data set the test system is Plasmodium berghei. Briefly: Antiplasmodial activity against liver stage chloroquine-susceptible Plasmodium berghei 1052 C11 infected in HepG2 cells after 44 hrs by TopCount microplate luminescence assay. It is filed as functional, cell-based. Particulars: 1052 C11, HepG2, 44 h; call rule not given here.
The subject of data set [2] is Plasmodium falciparum. Nature of the data set: Antimalarial activity against asexual blood stage of chloroquine-susceptible Plasmodium falciparum D6 infected in human erythrocytes by [3H]-Hypoxanthine uptake assay. It is filed as functional, cell-based.
The test system of data set [3] is Plasmodium falciparum. Briefly: Antimalarial activity against asexual blood stage of chloroquine-susceptible Plasmodium falciparum 3D7 infected in human erythrocytes by [3H]-Hypoxanthine uptake assay. The class given is functional, cell-based.
Data set [4] is described as follows: Drug uptake in food vacuole of Plasmodium falciparum D10-ACPLEADER-GFP gametocyte stage 4 infected in human erythrocytes at 150 uM after 30 to 45 mins by mitotracker Red dye based fluorescence microscopic analysis. The class given is ADME, cell-based.
The nature of data set [5]: Drug uptake in relict plastid of asexual blood stage of Plasmodium falciparum D10-ACPLEADER-GFP trophozoite forms infected in human erythrocytes at 150 uM after 30 to 45 mins by mitotracker Red dye based fluorescence microscopic analysis. It is filed as ADME, cell-based.
The nature of data set [6]: Drug uptake in cytoplasm of Plasmodium falciparum D10-ACPLEADER-GFP gametocyte stage 4 infected in human erythrocytes at 150 uM after 30 to 45 mins by mitotracker Red dye based fluorescence microscopic analysis. It is filed as ADME, cell-based.
A short description of data set [7]: Drug uptake in human HepG2 cells infected with liver stage chloroquine-susceptible Plasmodium berghei 1052 C11 by mitotracker red dye based fluorescence microscopic analysis. The class given is ADME, cell-based.
The next data set relates to Erythrocyte. Nature of the data set: Drug uptake in human erythrocytes after 30 to 45 mins by mitotracker red dye based flow cytometric method. It is filed as ADME, cell-based. For orientation: In flow cytometry, cells or beads pass a laser one at a time.
Data set [8] is described as follows: Drug uptake in food vacuole of asexual blood stage of Plasmodium falciparum D10-ACPLEADER-GFP trophozoite forms infected in human erythrocytes at 150 uM after 30 to 45 mins by mitotracker Red dye based fluorescence microscopic analysis. It is filed as ADME, cell-based.
Data set [9] is described as follows: Drug uptake in cytoplasm of Plasmodium falciparum D10-ACPLEADER-GFP gametocyte stage 5 infected in human erythrocytes at 150 uM after 30 to 45 mins by mitotracker Red dye based fluorescence microscopic analysis. It is filed as ADME, cell-based.
Data set [10] in a line: Drug uptake in relict plastid of asexual blood stage of Plasmodium falciparum D10-ACPLEADER-GFP ring forms infected in human erythrocytes at 150 uM after 30 to 45 mins by mitotracker Red dye based fluorescence microscopic analysis. It is filed as ADME, cell-based.
Data set [11] can be described thus: Drug uptake in apicoplast of asexual blood stage of Plasmodium falciparum D10-ACPLEADER-GFP ring forms infected in human erythrocytes at 150 uM after 30 to 45 mins by mitotracker Red dye based fluorescence microscopic analysis. It is filed as ADME, cell-based.
Data set [12] in a line: Drug uptake in mitochondria of Plasmodium falciparum D10-ACPLEADER-GFP gametocyte stage 4 infected in human erythrocytes at 150 uM after 30 to 45 mins by mitotracker Red dye based fluorescence microscopic analysis. The class given is ADME, cell-based.
Data set [13] is described as follows: Drug uptake in mitochondria of asexual blood stage of Plasmodium falciparum D10-ACPLEADER-GFP trophozoite forms infected in human erythrocytes at 150 uM after 30 to 45 mins by mitotracker Red dye based fluorescence microscopic analysis. The class given is ADME, cell-based.
A short description of data set [14]: Drug uptake in food vacuole of asexual blood stage of Plasmodium falciparum D10-ACPLEADER-GFP schizont forms infected in human erythrocytes at 150 uM after 30 to 45 mins by mitotracker Red dye based fluorescence microscopic analysis. The class given is ADME, cell-based.
The nature of data set [15]: Drug uptake in apicoplast of asexual blood stage of Plasmodium falciparum D10-ACPLEADER-GFP trophozoite forms infected in human erythrocytes at 150 uM after 30 to 45 mins by mitotracker Red dye based fluorescence microscopic analysis. It is filed as ADME, cell-based.
Data set [16] is described as follows: Drug uptake in food vacuole of Plasmodium falciparum D10-ACPLEADER-GFP gametocyte stage 5 infected in human erythrocytes at 150 uM after 30 to 45 mins by mitotracker Red dye based fluorescence microscopic analysis. It is filed as ADME, cell-based.
The nature of data set [17]: Drug uptake in cytoplasm of asexual blood stage of Plasmodium falciparum D10-ACPLEADER-GFP schizont forms infected in human erythrocytes at 150 uM after 30 to 45 mins by mitotracker Red dye based fluorescence microscopic analysis. The class given is ADME, cell-based.
Data set [18] can be described thus: Drug uptake in nucleus of asexual blood stage of Plasmodium falciparum D10-ACPLEADER-GFP ring forms infected in human erythrocytes at 150 uM after 30 to 45 mins by mitotracker Red dye based fluorescence microscopic analysis. The class given is ADME, cell-based.
A short description of data set [19]: Drug uptake in food vacuole of asexual blood stage of Plasmodium falciparum D10-ACPLEADER-GFP ring forms infected in human erythrocytes at 150 uM after 30 to 45 mins by mitotracker Red dye based fluorescence microscopic analysis. The class given is ADME, cell-based.
Data set [20] can be described thus: Drug uptake in mitochondria of asexual blood stage of Plasmodium falciparum D10-ACPLEADER-GFP schizont forms infected in human erythrocytes at 150 uM after 30 to 45 mins by mitotracker Red dye based fluorescence microscopic analysis. The class given is ADME, cell-based.
Data set [21] in a line: Drug uptake in nucleus of asexual blood stage of Plasmodium falciparum D10-ACPLEADER-GFP schizont forms infected in human erythrocytes at 150 uM after 30 to 45 mins by mitotracker Red dye based fluorescence microscopic analysis. The class given is ADME, cell-based.
The nature of data set [22]: Drug uptake in nucleus of asexual blood stage of Plasmodium falciparum D10-ACPLEADER-GFP trophozoite forms infected in human erythrocytes at 150 uM after 30 to 45 mins by mitotracker Red dye based fluorescence microscopic analysis. It is filed as ADME, cell-based.
A short description of data set [23]: Drug uptake in cytoplasm of asexual blood stage of Plasmodium falciparum D10-ACPLEADER-GFP ring forms infected in human erythrocytes at 150 uM after 30 to 45 mins by mitotracker Red dye based fluorescence microscopic analysis. It is filed as ADME, cell-based.
A short description of data set [24]: Drug uptake in cytoplasm of asexual blood stage of Plasmodium falciparum D10-ACPLEADER-GFP trophozoite forms infected in human erythrocytes at 150 uM after 30 to 45 mins in presence of primaquine by mitotracker Red dye based fluorescence microscopic analysis. The class given is ADME, cell-based.
Data set [25] in a line: Drug uptake in apicoplast of asexual blood stage of Plasmodium falciparum D10-ACPLEADER-GFP schizont forms infected in human erythrocytes at 150 uM after 30 to 45 mins by mitotracker Red dye based fluorescence microscopic analysis. The class given is ADME, cell-based.
The nature of data set [26]: Drug uptake in mitochondria of Plasmodium falciparum D10-ACPLEADER-GFP gametocyte stage 5 infected in human erythrocytes at 150 uM after 30 to 45 mins by mitotracker Red dye based fluorescence microscopic analysis. It is filed as ADME, cell-based.
The nature of data set [27]: Drug uptake in cytoplasm of asexual blood stage of Plasmodium falciparum D10-ACPLEADER-GFP trophozoite forms infected in human erythrocytes at 150 uM after 30 to 45 mins by mitotracker Red dye based fluorescence microscopic analysis. The class given is ADME, cell-based.
A short description of data set [28]: Drug uptake in mitochondria of asexual blood stage of Plasmodium falciparum D10-ACPLEADER-GFP ring forms infected in human erythrocytes at 150 uM after 30 to 45 mins by mitotracker Red dye based fluorescence microscopic analysis. The class given is ADME, cell-based.
The nature of data set [29]: Drug uptake in relict plastid of asexual blood stage of Plasmodium falciparum D10-ACPLEADER-GFP schizont forms infected in human erythrocytes at 150 uM after 30 to 45 mins by mitotracker Red dye based fluorescence microscopic analysis. It is filed as ADME, cell-based.

pIC50: −log10 of the molar value.

Regarding `COc1cc(NC(C)CCCN)c2ncccc2c1` (stereo not drawn) [PRIMAQUINE], the pIC50 with HepG2 was 4.00; in the data set with Plasmodium falciparum [1] it was 5.63; with Plasmodium berghei, 4.76; in the data set with Plasmodium falciparum [2], 5.29; in the data set on Plasmodium falciparum [3], 5.24.

In the case of `COc1cc(NC(C)CCCNC(=O)CCCc2cc(=O)oc3cc(O)ccc23)c2ncccc2c1` (stereo not drawn), the Drug uptake result in data set [4] is “Not Active”; in data set [5], “Not Active”; in data set [6], “Active”; in [7] it was “Not Active”; with Erythrocyte it was “Not Active”; in data set [8] it was “Not Active”. Further, the Drug uptake entry was “Active” in [9]; “Not Active” in data set [10]; “Not Active” in [11]; “Not Active” in [12]; “Not Active” in data set [13]; “Not Active” in data set [14]. Also, the Drug uptake result in data set [15] is “Not Active”; in [16], “Not Active”; in data set [17], “Active”; in [18], “Not Active”; in data set [19] it was “Not Active”; in [20], “Not Active”. Further, the Drug uptake result in data set [21] was “Not Active”; in data set [22], “Not Active”; in [23] it was “Active”; in [24], “Not Active”; in [25], “Not Active”; in data set [26], “Not Active”. Also, the Drug uptake entry in [27] was “Active”; in data set [28] it was “Not Active”; in data set [29], “Not Active”. Besides, the negative-log IC50 (pIC50) is 4.35 in the data set on HepG2; 5.45 in the data set with Plasmodium falciparum [1]; 4.68 with Plasmodium berghei; 5.35 in the data set on Plasmodium falciparum [2]; 4.98 with Plasmodium falciparum [3].

Consider `O=c1ccc2ccccc2o1` [COUMARIN], for which, in the data set on Erythrocyte, the Drug uptake result was “Not Active”.

One may read the pIC50 as −log10 of the IC50, conventionally taken in molar units. A high value points to a low IC50.
